# Reference: patent US11147272B2, “Pyridone compounds and agricultural and horticultural fungicides comprising the same as active ingredients” (MITSUI CHEMICALS AGRO, INC., priority 2017, dated 2021)
# Experiments:
# [1] = test system: Colletotrichum orbiculare; experiment: Test Example H: Anthracnose on cucumber; conditions: Anthracnose on cucumber; 250 ppm spray, 6 to 10 days after inoculation
# Method: Seeds of a test plant (cucumber variety: Sagami Hanjiro) were planted and cultivated until the first leaf appeared. In the test, the inventive compounds were dissolved into dimethyl sulfoxide-methanol mixture solution (volume ratio: 9/1), and the resultant solutions were diluted with well water to a concentration of 250 ppm to obtain the drug solutions. The drug solutions were sprayed to the test plant (2.5 ml/pot). After the drug solutions dried, a conidial suspension (2-4×10^5 conidia/ml) of Colletotrichum orbiculare was inoculated to the plant by spraying. After the inoculation, the plant was kept in a mist chamber at room temperature of 20 to 23° C. for about 24 hours to promote the onset of disease. The degrees of disease development were investigated 6 to 10 days after the inoculation, and the effectiveness of the drug solutions was evaluated.
# In Test Examples described above, the degrees of disease development were evaluated in increments of 0.05 from 0 (as no incidence of disease) to 3 (as the degree of disease development in an untreated plant group). Further, control values were calculated using the following equation based on the degree of disease development.
# n=Degree of disease development in each treated group
# In the table, H: more than 50% control value, L: 50% or less control value, and nt: not tested.
# Botrytis cinerea = experiment: Test Example B: Gray mold on tomato; conditions: Gray mold on tomato; control value class
# [2] = test system: Blumeria graminis f. sp. hordei; experiment: Test Example D: Powdery mildew on barley; conditions: Powdery mildew on barley; control value class
# Phytophthora infestans = experiment: whole plant or invertebrate; type: in vivo; conditions: Late blight on tomato; control value class
# Plasmopara viticola = experiment: Test Example G: Downy mildew on vine; conditions: Downy mildew on vine; 250 ppm spray, 7 to 10 days after inoculation
# Magnaporthe grisea = experiment: whole plant or invertebrate; type: in vivo; conditions: Blast on rice; control value class
# Puccinia recondita = experiment: Test Example E: Brown rust on wheat; type: in vivo; conditions: Brown rust on wheat; control value class
# Alternaia brassicicola = experiment: Test Example C: Alternaria sooty spot on cabbage; type: in vivo; conditions: Alternaria sooty spot on cabbage; control value class
# Source text: Seeds of a test plant (cabbage variety: Shikidori) were planted and cultivated until the cotyledons extended.
# <Control Value> Control value=100{1−(n/3)}
Structure (SMILES),Test H control value [1],Test B control value (Botrytis cinerea),Test D control value [2],Test F control value (Phytophthora infestans),Test G control value (Plasmopara viticola),Test A control value (Magnaporthe grisea),Test E control value (Puccinia recondita),Test C control value (Alternaia brassicicola)
CCOC(C)(c1cc(Cl)c(=O)n(CC)c1-c1ccc(OC)cc1)C(C)C (stereo not shown) [compound 247],L (50% or less control value),H (more than 50% control value),H (more than 50% control value),L (50% or less control value),L (50% or less control value),L (50% or less control value),L (50% or less control value),L (50% or less control value)
CCCOC(C)(c1cc(Cl)c(=O)n(CC)c1-c1ccc(OC)cc1)C(C)C (stereo not shown) [compound 248],L (50% or less control value),L (50% or less control value),L (50% or less control value),L (50% or less control value),L (50% or less control value),H (more than 50% control value),L (50% or less control value),L (50% or less control value)
CCn1c(-c2ccc(OC)cc2)c(C(C)(F)C(C)C)cc(Cl)c1=O (stereo not shown) [compound 249],H (more than 50% control value),H (more than 50% control value),L (50% or less control value),L (50% or less control value),L (50% or less control value),L (50% or less control value),H (more than 50% control value),H (more than 50% control value)
CCn1c(-c2ccc(C#N)cc2)c(C(C)(OC)C(C)C)cc(Cl)c1=O (stereo not shown) [compound 250],L (50% or less control value),H (more than 50% control value),L (50% or less control value),L (50% or less control value),L (50% or less control value),L (50% or less control value),H (more than 50% control value),L (50% or less control value)
CCOC(C)(c1cc(Cl)c(=O)n(CC)c1-c1ccc(C#N)cc1)C(C)C (stereo not shown) [compound 251],L (50% or less control value),L (50% or less control value),L (50% or less control value),L (50% or less control value),L (50% or less control value),L (50% or less control value),L (50% or less control value),H (more than 50% control value)
CCCOC(C)(c1cc(Cl)c(=O)n(CC)c1-c1ccc(C#N)cc1)C(C)C (stereo not shown) [compound 252],L (50% or less control value),L (50% or less control value),L (50% or less control value),L (50% or less control value),L (50% or less control value),H (more than 50% control value),L (50% or less control value),L (50% or less control value)
CCn1c(-c2ccc(C#N)cc2)c(C(C)(F)C(C)C)cc(Cl)c1=O (stereo not shown) [compound 253],L (50% or less control value),H (more than 50% control value),L (50% or less control value),L (50% or less control value),L (50% or less control value),L (50% or less control value),L (50% or less control value),H (more than 50% control value)
CCn1c(-c2ccc(O)cc2Cl)c(CC(C)C)cc(Cl)c1=O [compound 254],H (more than 50% control value),H (more than 50% control value),L (50% or less control value),H (more than 50% control value),L (50% or less control value),L (50% or less control value),H (more than 50% control value),H (more than 50% control value)
CCn1c(-c2ccccc2F)c(CC(C)C)cc(Cl)c1=O [compound 255],H (more than 50% control value),H (more than 50% control value),H (more than 50% control value),L (50% or less control value),L (50% or less control value),H (more than 50% control value),H (more than 50% control value),H (more than 50% control value)
CCOC(C)(c1cc(Cl)c(=O)n(CC)c1-c1c(F)cc(F)cc1F)C1CCCC1 (stereo not shown) [compound 256],L (50% or less control value),L (50% or less control value),H (more than 50% control value),L (50% or less control value),H (more than 50% control value),L (50% or less control value),H (more than 50% control value),L (50% or less control value)
CCCOC(C)(c1cc(Cl)c(=O)n(CC)c1-c1c(F)cc(F)cc1F)C1CCCC1 (stereo not shown) [compound 257],H (more than 50% control value),L (50% or less control value),L (50% or less control value),L (50% or less control value),L (50% or less control value),L (50% or less control value),L (50% or less control value),H (more than 50% control value)
CCn1c(-c2c(F)cc(F)cc2F)c(C(O)C2CC2)cc(Cl)c1=O (stereo not shown) [compound 258],H (more than 50% control value),H (more than 50% control value),H (more than 50% control value),L (50% or less control value),H (more than 50% control value),H (more than 50% control value),H (more than 50% control value),H (more than 50% control value)
CCn1c(-c2c(F)cc(F)cc2F)c(C(OC(C)=O)C2CC2)cc(Cl)c1=O (stereo not shown) [compound 259],H (more than 50% control value),H (more than 50% control value),H (more than 50% control value),L (50% or less control value),H (more than 50% control value),H (more than 50% control value),H (more than 50% control value),H (more than 50% control value)
CCn1c(-c2c(F)cc(F)cc2F)c(C(=O)C2CC2)cc(Cl)c1=O [compound 260],H (more than 50% control value),H (more than 50% control value),H (more than 50% control value),H (more than 50% control value),L (50% or less control value),H (more than 50% control value),H (more than 50% control value),H (more than 50% control value)
CCn1c(-c2c(F)cc(F)cc2F)c(C(C)(O)C2CC2)cc(Cl)c1=O (stereo not shown) [compound 261],H (more than 50% control value),H (more than 50% control value),H (more than 50% control value),L (50% or less control value),H (more than 50% control value),H (more than 50% control value),H (more than 50% control value),H (more than 50% control value)
CCn1c(-c2ccccc2Cl)c(CC(C)C)ccc1=O [compound 262],H (more than 50% control value),H (more than 50% control value),H (more than 50% control value),L (50% or less control value),L (50% or less control value),L (50% or less control value),H (more than 50% control value),H (more than 50% control value)
CCc1cc(F)ccc1-c1c(CC(C)C)cc(Cl)c(=O)n1CC [compound 263],H (more than 50% control value),H (more than 50% control value),H (more than 50% control value),L (50% or less control value),H (more than 50% control value),H (more than 50% control value),H (more than 50% control value),H (more than 50% control value)
